Reference: ChEMBL document CHEMBL5338815 (J Med Chem, 2023)
Active and inactive are the calls of the source. No cut-off for these calls is given here.

Key:
[1] = molecular target: T1, Histone-lysine N-methyltransferase EHMT1 (Homo sapiens) (UniProt Q9H9B1); experiment: Covalent inhibition of recombinant GLP (unknown origin) assessed as adduct formation intensity by measuring mass after 12 hrs by mass spectrometric analysis
T1 sequence (whole entry): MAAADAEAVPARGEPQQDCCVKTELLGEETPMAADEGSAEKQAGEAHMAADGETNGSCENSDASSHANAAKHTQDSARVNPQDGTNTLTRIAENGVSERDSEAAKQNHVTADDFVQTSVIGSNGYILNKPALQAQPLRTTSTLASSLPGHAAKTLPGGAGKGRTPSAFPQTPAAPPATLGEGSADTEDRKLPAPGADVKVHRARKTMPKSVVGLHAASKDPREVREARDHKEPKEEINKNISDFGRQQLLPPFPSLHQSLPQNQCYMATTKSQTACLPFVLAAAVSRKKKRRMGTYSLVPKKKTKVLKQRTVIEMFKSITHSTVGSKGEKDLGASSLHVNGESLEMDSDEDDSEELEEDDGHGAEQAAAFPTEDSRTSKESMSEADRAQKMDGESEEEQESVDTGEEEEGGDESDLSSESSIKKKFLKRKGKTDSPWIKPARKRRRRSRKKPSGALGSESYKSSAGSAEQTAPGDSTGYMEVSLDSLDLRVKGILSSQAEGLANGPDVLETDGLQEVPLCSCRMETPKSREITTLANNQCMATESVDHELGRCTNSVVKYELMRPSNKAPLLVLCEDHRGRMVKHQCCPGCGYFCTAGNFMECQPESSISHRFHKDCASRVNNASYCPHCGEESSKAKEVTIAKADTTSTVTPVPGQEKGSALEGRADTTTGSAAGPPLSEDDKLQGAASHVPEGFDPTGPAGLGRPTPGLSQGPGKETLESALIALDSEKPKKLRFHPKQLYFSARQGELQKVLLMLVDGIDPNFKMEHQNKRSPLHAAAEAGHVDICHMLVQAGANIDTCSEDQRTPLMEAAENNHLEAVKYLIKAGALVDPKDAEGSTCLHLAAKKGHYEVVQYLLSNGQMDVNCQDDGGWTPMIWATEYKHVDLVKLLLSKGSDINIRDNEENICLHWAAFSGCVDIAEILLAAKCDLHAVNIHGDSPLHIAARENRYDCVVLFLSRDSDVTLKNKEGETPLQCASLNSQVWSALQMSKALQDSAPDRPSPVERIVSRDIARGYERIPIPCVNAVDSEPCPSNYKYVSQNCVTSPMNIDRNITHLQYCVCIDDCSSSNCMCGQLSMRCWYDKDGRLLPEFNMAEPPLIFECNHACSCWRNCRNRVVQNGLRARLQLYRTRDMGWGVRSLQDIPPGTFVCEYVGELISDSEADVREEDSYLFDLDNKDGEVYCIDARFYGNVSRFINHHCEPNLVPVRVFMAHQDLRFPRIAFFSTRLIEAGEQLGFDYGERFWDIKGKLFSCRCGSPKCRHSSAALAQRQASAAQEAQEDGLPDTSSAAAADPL

MDA-MB-231 [2] = experiment: Reduction in H3K9me2 level in human MDA-MB-231 cells at 10 uM incubated for 48 hrs followed replaced with fresh medium measured after 48 hrs by Western blot analysis; type: functional, cell-based
[3] = Toxicity in Balb/c mouse xenografted with human PANC-1 cells assessed as body weight change at 2 mg/kg, ip treated for 22 days relative to control; type: organism-based; details: in vivo, 528 h, time 22 day
[4] = Metabolic stability in mouse liver microsomes assessed as half life at 0.1 uM measured upto 60 mins by LC-MS/MS analysis; type: ADME, Microsome
[5] = molecular target: Histone-lysine N-methyltransferase EZH2 (Homo sapiens, UniProt Q15910); experiment: Inhibition of EZH2 (unknown origin)
Sequence of Histone-lysine N-methyltransferase EZH2 (Q15910 whole entry): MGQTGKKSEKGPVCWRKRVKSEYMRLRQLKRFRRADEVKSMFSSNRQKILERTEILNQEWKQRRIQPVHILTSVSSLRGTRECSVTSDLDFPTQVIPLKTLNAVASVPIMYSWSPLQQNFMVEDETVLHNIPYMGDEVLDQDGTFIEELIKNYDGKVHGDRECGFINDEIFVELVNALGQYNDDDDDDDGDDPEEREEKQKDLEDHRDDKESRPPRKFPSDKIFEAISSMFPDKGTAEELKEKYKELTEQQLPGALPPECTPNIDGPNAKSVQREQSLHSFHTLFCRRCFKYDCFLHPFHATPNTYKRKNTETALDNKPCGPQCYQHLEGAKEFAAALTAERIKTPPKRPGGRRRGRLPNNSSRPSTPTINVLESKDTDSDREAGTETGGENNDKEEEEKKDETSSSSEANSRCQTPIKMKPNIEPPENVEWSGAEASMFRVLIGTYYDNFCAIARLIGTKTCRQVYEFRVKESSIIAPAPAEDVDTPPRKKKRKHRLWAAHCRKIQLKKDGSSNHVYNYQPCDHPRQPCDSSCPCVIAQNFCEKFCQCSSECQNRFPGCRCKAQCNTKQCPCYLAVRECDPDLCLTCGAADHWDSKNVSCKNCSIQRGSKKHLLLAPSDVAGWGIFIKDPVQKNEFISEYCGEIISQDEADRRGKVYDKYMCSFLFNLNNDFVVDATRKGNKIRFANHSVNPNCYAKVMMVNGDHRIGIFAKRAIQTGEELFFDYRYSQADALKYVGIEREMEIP

[6] = AUC (0 to infinity) in ICR mouse at 2 mg/kg, ip measured upto 24 hrs by LC-MS/MS analysis; type: ADME, organism-based; design: dose 2 mg/kg, time < 24 hrs, route ip; details: in vivo
[7] = molecular target: T2, Histone-arginine methyltransferase CARM1 (Homo sapiens, UniProt Q86X55); experiment: Inhibition of PRMT4 (unknown origin)
T2 sequence (Q86X55 whole entry): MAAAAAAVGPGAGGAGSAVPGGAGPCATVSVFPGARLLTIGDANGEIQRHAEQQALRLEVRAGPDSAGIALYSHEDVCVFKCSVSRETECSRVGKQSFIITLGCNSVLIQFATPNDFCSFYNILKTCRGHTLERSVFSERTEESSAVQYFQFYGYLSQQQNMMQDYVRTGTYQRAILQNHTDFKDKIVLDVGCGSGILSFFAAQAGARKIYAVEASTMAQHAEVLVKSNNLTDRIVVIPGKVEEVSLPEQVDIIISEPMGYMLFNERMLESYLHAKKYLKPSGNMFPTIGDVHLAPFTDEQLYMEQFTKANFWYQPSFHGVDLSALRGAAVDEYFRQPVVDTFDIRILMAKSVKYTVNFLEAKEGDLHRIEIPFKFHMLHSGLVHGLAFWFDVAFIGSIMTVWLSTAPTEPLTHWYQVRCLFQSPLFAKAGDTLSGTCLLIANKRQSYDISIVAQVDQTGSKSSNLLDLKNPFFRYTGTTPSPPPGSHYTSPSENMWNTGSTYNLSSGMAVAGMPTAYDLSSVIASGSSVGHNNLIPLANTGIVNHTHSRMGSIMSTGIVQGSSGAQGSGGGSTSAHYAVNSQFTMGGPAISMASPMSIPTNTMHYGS

[8] = molecular target: Histone-lysine N-methyltransferase 2B (Homo sapiens, UniProt Q9UMN6); experiment: Inhibition of MLL4 (unknown origin)
Sequence of Histone-lysine N-methyltransferase 2B (Q9UMN6 whole entry): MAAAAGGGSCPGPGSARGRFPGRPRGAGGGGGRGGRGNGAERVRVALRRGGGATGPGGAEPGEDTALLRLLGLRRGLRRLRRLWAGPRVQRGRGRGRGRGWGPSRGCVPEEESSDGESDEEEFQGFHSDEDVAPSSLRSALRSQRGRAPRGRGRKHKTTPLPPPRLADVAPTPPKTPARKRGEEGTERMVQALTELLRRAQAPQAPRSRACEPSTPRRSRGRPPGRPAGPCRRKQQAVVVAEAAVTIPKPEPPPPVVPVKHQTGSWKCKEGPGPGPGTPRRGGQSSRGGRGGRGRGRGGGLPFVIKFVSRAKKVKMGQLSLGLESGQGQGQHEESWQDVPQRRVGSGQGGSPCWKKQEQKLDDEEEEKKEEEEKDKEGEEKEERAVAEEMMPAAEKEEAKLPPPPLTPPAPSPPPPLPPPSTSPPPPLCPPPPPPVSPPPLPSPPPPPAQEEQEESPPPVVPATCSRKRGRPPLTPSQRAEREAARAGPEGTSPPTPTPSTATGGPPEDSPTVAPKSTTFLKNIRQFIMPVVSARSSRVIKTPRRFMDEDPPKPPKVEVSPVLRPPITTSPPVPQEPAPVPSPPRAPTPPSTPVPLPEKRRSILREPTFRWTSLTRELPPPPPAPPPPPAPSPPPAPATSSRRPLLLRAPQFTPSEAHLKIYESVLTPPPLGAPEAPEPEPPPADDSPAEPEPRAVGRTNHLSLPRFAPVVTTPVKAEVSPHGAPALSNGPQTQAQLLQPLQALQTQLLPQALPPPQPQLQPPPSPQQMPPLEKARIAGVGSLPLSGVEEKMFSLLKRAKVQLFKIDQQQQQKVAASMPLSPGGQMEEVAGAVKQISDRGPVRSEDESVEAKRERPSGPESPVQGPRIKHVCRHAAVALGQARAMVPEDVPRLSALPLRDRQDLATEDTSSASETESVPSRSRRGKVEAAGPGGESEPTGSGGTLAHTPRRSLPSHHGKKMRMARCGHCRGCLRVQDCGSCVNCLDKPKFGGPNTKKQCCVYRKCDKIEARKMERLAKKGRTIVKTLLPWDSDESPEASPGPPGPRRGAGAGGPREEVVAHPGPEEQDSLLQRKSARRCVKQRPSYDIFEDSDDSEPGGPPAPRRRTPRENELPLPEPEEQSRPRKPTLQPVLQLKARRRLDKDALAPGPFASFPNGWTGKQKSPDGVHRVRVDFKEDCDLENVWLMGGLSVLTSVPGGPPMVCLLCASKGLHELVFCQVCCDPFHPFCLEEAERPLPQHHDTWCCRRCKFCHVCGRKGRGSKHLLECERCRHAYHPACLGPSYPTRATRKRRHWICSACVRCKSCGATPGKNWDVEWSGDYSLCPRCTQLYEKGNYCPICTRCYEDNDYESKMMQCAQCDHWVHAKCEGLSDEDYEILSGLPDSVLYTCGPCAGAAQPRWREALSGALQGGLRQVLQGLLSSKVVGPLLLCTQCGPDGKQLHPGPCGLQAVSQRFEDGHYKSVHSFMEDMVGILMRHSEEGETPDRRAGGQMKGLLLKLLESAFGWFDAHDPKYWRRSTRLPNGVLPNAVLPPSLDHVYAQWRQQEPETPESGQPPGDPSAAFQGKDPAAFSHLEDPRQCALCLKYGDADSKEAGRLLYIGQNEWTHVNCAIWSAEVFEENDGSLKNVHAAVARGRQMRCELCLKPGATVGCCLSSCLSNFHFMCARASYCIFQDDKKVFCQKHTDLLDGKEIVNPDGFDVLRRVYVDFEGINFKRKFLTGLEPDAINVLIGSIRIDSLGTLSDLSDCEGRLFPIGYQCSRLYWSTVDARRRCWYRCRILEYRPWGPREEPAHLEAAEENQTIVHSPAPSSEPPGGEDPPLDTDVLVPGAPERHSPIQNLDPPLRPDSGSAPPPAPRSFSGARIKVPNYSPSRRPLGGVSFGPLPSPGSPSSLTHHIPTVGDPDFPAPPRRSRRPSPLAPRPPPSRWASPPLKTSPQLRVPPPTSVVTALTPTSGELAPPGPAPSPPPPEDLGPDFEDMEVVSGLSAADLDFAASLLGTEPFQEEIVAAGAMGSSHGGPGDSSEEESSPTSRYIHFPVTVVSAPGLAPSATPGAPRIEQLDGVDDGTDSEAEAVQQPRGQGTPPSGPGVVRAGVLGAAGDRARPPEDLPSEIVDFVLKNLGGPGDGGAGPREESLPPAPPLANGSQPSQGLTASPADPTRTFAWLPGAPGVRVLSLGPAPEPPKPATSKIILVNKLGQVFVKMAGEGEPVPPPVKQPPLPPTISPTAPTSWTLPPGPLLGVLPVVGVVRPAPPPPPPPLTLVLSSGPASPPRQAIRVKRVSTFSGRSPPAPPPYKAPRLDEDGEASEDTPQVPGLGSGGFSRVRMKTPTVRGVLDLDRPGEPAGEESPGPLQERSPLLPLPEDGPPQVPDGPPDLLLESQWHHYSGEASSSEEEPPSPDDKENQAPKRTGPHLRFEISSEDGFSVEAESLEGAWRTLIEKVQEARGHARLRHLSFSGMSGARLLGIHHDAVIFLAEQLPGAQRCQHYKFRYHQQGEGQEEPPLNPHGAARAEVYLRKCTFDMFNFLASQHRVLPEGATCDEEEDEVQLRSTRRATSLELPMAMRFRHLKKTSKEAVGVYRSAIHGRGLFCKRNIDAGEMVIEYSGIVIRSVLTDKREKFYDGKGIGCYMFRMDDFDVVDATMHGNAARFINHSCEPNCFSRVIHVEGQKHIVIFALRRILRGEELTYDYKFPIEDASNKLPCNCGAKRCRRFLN

[9] = molecular target: DNA (cytosine-5)-methyltransferase 1 (Homo sapiens, UniProt P26358); experiment: Inhibition of DNMT1 (unknown origin)
Sequence of DNA (cytosine-5)-methyltransferase 1 (P26358 whole entry): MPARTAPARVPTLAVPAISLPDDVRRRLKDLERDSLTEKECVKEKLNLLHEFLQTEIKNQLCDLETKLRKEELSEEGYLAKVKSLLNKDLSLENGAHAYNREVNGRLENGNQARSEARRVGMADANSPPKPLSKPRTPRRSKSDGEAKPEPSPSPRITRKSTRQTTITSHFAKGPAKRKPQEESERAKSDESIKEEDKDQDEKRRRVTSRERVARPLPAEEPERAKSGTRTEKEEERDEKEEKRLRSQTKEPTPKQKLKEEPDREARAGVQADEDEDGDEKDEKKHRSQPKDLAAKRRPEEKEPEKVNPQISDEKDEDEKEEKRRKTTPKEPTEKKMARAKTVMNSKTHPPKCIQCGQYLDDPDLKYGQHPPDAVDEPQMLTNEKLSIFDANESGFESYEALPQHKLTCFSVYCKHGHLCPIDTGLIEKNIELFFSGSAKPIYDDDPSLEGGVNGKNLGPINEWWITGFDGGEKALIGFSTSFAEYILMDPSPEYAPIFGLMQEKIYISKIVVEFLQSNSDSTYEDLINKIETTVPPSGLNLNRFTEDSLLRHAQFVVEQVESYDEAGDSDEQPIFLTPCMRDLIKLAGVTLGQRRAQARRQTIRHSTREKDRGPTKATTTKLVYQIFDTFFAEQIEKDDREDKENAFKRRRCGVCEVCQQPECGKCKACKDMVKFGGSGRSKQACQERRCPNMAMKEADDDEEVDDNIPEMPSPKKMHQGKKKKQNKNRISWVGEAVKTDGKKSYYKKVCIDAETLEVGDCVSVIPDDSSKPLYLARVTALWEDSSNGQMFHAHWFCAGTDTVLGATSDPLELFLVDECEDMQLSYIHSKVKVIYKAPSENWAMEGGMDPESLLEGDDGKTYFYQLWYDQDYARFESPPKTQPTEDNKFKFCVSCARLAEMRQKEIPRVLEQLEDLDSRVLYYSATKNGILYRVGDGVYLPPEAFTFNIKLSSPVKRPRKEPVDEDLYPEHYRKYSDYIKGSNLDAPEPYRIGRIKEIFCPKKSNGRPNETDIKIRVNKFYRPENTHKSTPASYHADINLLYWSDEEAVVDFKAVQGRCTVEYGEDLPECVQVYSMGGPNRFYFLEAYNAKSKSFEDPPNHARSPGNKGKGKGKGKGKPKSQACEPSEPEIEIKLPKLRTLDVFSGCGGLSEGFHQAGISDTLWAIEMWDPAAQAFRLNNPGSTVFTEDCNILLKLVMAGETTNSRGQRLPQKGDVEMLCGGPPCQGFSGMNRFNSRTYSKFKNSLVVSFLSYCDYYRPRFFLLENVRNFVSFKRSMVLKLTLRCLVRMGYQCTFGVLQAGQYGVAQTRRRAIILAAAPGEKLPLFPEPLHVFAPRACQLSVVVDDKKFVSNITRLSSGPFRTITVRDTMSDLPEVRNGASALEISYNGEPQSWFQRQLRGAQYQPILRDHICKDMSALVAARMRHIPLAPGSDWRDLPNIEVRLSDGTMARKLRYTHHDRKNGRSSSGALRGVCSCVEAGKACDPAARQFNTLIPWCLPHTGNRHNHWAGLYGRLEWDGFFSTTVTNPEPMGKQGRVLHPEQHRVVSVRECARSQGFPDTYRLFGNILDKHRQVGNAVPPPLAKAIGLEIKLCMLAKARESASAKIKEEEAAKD

MDA-MB-231 [10] = experiment: Inhibition of colony formation in human MDA-MB-231 cells at […] incubated for 14 days drug medium changed for every 2 days by crystal violet staining based analysis; type: cell-based; details: dose 2.5 µM, time 14.0 day

Activity [1]: 53800 Da
half-life at 0.1 µM [4]: 1.19 h
IC50 [5]: > 20 µM
AUC(0-inf) [6]: 214 ng·h/mL
IC50 [7]: 6.68 µM
IC50 [8]: > 20 µM
IC50 [9]: > 20 µM
Structure (SMILES): C=CC(=O)N(C)c1nc(NC2CCN(C)CC2)c2cc(OC)c(OCCCN3CCCC3)cc2n1
inhibition (MDA-MB-231 [2]): inactive
Activity [3]: Non-Toxic
inhibition (MDA-MB-231 [10]): Active
